Experimental findings from ChEMBL document CHEMBL1155783, “Novel sterically hindered cannabinoid CB1 receptor ligands” (Bioorg Med Chem, 2008) are described below.

The source made the active and inactive calls. The rule behind the calls is not given here.

The target of test [1] is Cannabinoid receptor 2 (Homo sapiens, UniProt P34972). Nature of the test: Displacement of [3H]CP-55940 from human recombinant CB2 receptor expressed in HEK cells. The format is cell-based, HEK293.
Test [2] addresses Cannabinoid receptor 1 (Homo sapiens, UniProt P21554). Put plainly: biochemical. The format is cell-based, HEK293.
Description: Displacement of [3H]CP-55940 from human recombinant CB1 receptor expressed in HEK cells
The target in test [3] is Cannabinoid receptor 1 (Mus musculus) (UniProt P47746). Put plainly: Agonist activity at mouse CB1 receptor in N18TG2 cells assessed as inhibition of forskolin-stimulated cAMP formation at 1 uM in presence of 0.1 uM WIN-55212-2.
Cannabinoid receptor 1 (Mus musculus), sequence (P47746 whole entry, looked up): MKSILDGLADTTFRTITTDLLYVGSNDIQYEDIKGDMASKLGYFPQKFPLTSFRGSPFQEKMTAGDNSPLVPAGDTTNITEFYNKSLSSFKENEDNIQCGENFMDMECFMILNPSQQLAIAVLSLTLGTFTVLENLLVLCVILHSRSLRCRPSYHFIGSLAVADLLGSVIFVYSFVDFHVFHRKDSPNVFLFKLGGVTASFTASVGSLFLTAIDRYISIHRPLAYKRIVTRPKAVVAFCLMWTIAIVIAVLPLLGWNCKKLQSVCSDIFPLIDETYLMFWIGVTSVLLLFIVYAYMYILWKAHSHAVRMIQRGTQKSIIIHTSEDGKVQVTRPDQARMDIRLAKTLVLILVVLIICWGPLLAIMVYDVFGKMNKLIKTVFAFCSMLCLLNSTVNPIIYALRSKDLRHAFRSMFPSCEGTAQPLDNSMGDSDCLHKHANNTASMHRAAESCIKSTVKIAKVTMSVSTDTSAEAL
The species entered for test [4] is Homo sapiens. Put plainly: Selectivity of Ki for human recombinant CB1 receptor over Ki for human recombinant CB2 receptor.

Cannabinoid receptor 1, sequence (P21554 whole entry): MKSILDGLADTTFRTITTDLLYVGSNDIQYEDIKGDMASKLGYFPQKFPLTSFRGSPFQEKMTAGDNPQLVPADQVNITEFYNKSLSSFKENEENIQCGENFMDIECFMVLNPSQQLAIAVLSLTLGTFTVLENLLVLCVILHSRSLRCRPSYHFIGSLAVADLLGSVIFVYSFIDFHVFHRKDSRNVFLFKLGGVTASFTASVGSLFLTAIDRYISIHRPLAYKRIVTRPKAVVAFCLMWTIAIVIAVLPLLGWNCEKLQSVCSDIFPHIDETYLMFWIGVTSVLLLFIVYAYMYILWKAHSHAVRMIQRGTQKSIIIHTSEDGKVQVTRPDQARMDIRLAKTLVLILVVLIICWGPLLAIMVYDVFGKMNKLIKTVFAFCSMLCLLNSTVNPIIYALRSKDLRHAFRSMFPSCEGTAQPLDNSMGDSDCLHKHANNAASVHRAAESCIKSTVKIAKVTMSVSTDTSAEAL
Cannabinoid receptor 2, sequence (P34972 whole entry): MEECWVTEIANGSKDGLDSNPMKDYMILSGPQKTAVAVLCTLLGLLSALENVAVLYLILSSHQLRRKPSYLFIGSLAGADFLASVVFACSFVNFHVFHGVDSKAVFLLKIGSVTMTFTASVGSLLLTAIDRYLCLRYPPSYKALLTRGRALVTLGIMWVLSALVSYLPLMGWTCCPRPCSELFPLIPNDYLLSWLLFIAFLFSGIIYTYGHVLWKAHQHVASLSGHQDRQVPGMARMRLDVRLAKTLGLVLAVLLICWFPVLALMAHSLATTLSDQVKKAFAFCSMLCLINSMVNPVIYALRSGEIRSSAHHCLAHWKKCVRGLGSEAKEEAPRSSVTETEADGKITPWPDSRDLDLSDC

What is called Ki is a dissociation constant, usually derived from enzyme kinetics or from competition with a known ligand. With `O=C(NCCC(c1ccccc1)c1ccccc1)C(O)(c1ccccc1)c1ccccc1`, the inhibitory constant (Ki) in test [1] was found to be 2300 nM; in test [2], 2200 nM.
In the same order, the values of `O=C(Cc1ccc(Br)cc1)NCCC(c1ccccc1)c1ccccc1` are 1300 nM and 800 nM.
For `O=C(NCCCc1ccccc1)C(c1ccccc1)c1ccc(Br)cc1` (stereo unspecified), in that order: 1800 nM and 1900 nM.
In the case of `COc1ccc(C(C(=O)NCCC(c2ccccc2)c2ccccc2)c2ccccc2)cc1` (stereo unspecified), the Ki amounted to 790 nM in test [1] and 560 nM in test [2].
For `O=C(NCCC(c1ccccc1)c1ccccc1)C(Cl)(c1ccccc1)c1ccccc1`, in that order: 1400 nM and 280 nM.
In the same order, the values of `O=C(NCCCc1ccccc1)C(c1ccccc1)c1ccccc1` are above 7900 nM and 3400 nM.
For `O=C(NCCCc1ccccc1)C(c1ccccc1)c1ccc(Cl)cc1` (stereo unspecified), in that order: 2400 nM and 2200 nM.
With `O=C(Cc1ccc(Cl)cc1)NCCC(c1ccccc1)c1ccccc1`, the inhibitory constant (Ki) in test [1] was 2400 nM; in test [2], 1600 nM.
For `CC(C(=O)NCCC(c1ccccc1)c1ccccc1)(c1ccccc1)c1ccccc1`, in that order: 290 nM and 560 nM.
For the compound `Nc1ccc(C(C(=O)NCCC(c2ccccc2)c2ccccc2)c2ccccc2)cc1` (stereo unspecified), the Ki worked out at 1200 nM in test [1] and 900 nM in test [2].
Consider `O=C(Cc1ccccc1)NCCC(c1ccccc1)c1ccccc1`, for which the values for the inhibition constant Ki in test [1] and in test [2] were above 7900 nM and 560 nM, respectively.
In the same order, the values of `O=C(NCCC(c1ccccc1)c1ccccc1)C(c1ccccc1)c1ccc(Br)cc1` (stereo unspecified) are above 7900 nM and 220 nM.
For `O=C(NCCC(c1ccccc1)c1ccccc1)C(c1ccccc1)c1ccc([N+](=O)[O-])cc1` (stereo unspecified), in that order: 790 nM and 560 nM.
In the same order, the values of `O=C(NCCC(c1ccccc1)c1ccccc1)C(c1ccccc1)c1ccc(Cl)cc1` (stereo unspecified) are above 7900 nM and 560 nM.
`O=C(NCCC(c1ccccc1)c1ccccc1)C(c1ccccc1)c1ccc(O)cc1` (stereo unspecified): the Ki in test [1] came out at 1100 nM; in test [2], 560 nM.
For the compound `O=C(NCCC(c1ccccc1)c1ccccc1)C(c1ccccc1)c1ccccc1`, the result in test [3] was inactive. For the same compound, the figures for the Ki in test [1] and in test [2] were 7900 nM and 58 nM, respectively. The Ratio Ki in test [4] came out at 140.
Take `Cc1ccc(C(C(=O)NCCC(c2ccccc2)c2ccccc2)c2ccccc2)cc1` (stereo unspecified): the Ki stood at 650 nM in test [1] and 560 nM in test [2].
